Reference: US20140009887A1, “FLUORINATED OXIRANES AS HEAT TRANSFER FLUIDS” (3M INNOVATIVE PROPERTIES COMPANY, priority 2011, published 2014)

Assays:
Kinematic viscosity = format: physicochemical; settings: for Viscosity @ 25° C.: kinematic viscosity; for Low temperature kinematic viscosity (in words): compared with fluids close in boiling point, FIG. 1 and FIG. 2
From the text: (§1) The useful liquid range (between the pour point and the normal boiling point) of the fluorinated oxiranes (Examples 1-3) are similar to perfluorocarbons (Comparative 1), perfluoroketones (Comparative 2), and perfluoroethers (Comparative 3). The specific heat capacity of the Comparatives is also very similar to the exemplary fluorinated oxiranes.
The viscosity impacts the heat transfer performance and liquid pumping power.

Vapor pressure = format: physicochemical
From the text: as §1

[1] = Normal boiling point (thermophysical properties); format: physicochemical
From the text: as §1

[2] = Pour point (thermophysical properties); format: physicochemical
From the text: as §1

Specific heat capacity = format: physicochemical
From the text: as §1

[3] = Hydrolytic stability: fluoride ion in water phase after aging with deionized water; format: physicochemical; settings: for F concentration after 30 min at 25° C. / F concentration after 4 hours at 50° C.: 5 g material + 5 g deionized water; for F concentration after 30 min at 25° C.: agitated 30 min at room temperature (~25° C.); for F concentration after 4 hours at 50° C.: monel pressure vessel
Protocol: Example 1 and Comparatives 1 and 2 were tested for hydrolytic stability at room temperature (˜25° C.) and 50° C. Room temperature testing was conducted by placing 5 grams of test material along with 5 grams of deionized water in new polypropylene, centrifuge tubes which were then sealed and agitated for 30 minutes using a shaker set at low speed. Elevated temperature testing was carried out by placing 5 grams of test material along with 5 grams deionized water in a clean monel pressure vessel which was sealed and placed in a convection oven set at 50° C. for 4 hours. After aging, the fluoride concentrations were determined by mixing 0.5 ml of the water phase from each sample with 0.5 ml of TISAB II buffer solution and measuring fluoride ion concentration using a calibrated fluoride selective electrode connected to a pH/millivolt meter (both the electrode and buffer solutions are available from Thermo Scientific Orion, Beverly, Mass.). The hydrolytic stability of Example 1, Comparative Example 1 and Comparative Example 2 were determined and are reported as parts per million by weight (ppmw) of fluorine in Table III below.

[4] = Dielectric breakdown strength according to ASTM D877; format: physicochemical; settings: ASTM D877, model LD60 liquid dielectric test set
Protocol: In applications where the direct contact of energized, electronic components by the heat transfer fluid occurs, whether intended or otherwise, the need exists for fluids with dielectric breakdown strengths greater than around 8 megavolts/meter (MV/m), measured according to ASTM D877. Such high dielectric breakdown strengths help to avoid damage to the electronic components through short circuits.
The dielectric breakdown strengths of Example 1 and 3 were determined according to ASTM D877, using a model LD60 liquid dielectric test set available from Phenix Technologies, Accident, Md. The breakdown strengths for example 1 and 3 were 15.5 MV/m and 17.3 MV/m respectively.

[5] = Atmospheric lifetime from kinetic studies for reaction with hydroxyl radical; format: physicochemical; settings: based on kinetic studies for reaction with hydroxyl radical
From the text: The atmospheric lifetimes of C6F14 and CF3OCF(CF3)CF2OCF2OCF3 are reported as 3200 years and 800 years, respectively (see Climate Change 2007: The Physical Science Basis. Contribution of Working Group I to the Fourth Assessment Report of the Intergovernmental Panel on Climate Change, Solomon, S., D. Qin, M. Manning, Z. Chen, M. Marquis, K. B. Averyt, M. Tignor and H. L. Miller (eds.), Cambridge University Press, Cambridge, United Kingdom and New York, N.Y., USA, 996 pp, 2007.). […] Based on kinetic studies for reaction with hydroxyl radical, 2,3-difluoro-2-(1,2,2,2-tetrafluoro-l-trifluoromethyl-ethyl)-3-trifluoromethyl-oxirane has an estimated atmospheric lifetime of 20 years.

[6] = reported in Climate Change 2007, IPCC Fourth Assessment Report; cited from earlier work

Row | Molecule | Viscosity @ 25° C. (Kinematic viscosity) | Vapor Pressure @ 25° C. (Vapor pressure) | Normal Boiling Point [1] | Pour Point [2] | Specific Heat Capacity (Specific heat capacity) | Low temperature kinematic viscosity (in words) (Kinematic viscosity) | F concentration after 30 min at 25° C. [3] | F concentration after 4 hours at 50° C. [3] | Hydrolytic stability (comparison in words) ([3]; room temperature and 50° C.) | Dielectric breakdown strength [4] | Estimated atmospheric lifetime [5] | Atmospheric lifetime [6]
1 | CCOC(F)(C(F)(F)C(F)(F)C(F)(F)F)C(F)(C(F)(F)F)C(F)(F)F (stereo not drawn) [Comparative 3, 2-trifluoromethyl-3-ethoxydodecafluorohexane] | 7.7 ×10^−7 m^2/s | 2.1 kPa | 128 °C | −100 °C | 1128 J/kg-K | – | – | – | – | – | – | –
2 | FC(F)(F)C(F)(F)C(F)(F)N(C(F)(F)C(F)(F)C(F)(F)F)C(F)(F)C(F)(F)C(F)(F)F [Comparative 4, Perfluorotripropylamine] | 7.5 ×10^−7 m^2/s | 1.4 kPa | 130 °C | −50 °C | 1100 J/kg-K | – | – | – | – | – | – | –
3 | FC(F)(F)C1(F)OC1(F)C(F)(C(F)(F)F)C(F)(F)F (stereo not drawn) [Example 1, 2,3-difluoro-2-(1,2,2,2-tetrafluoro-1-trifluoromethyl-ethyl)-3-trifluoromethyl-oxirane] | 3.7 ×10^−7 m^2/s | 36.0 kPa | 51.7 °C | −145 °C | 1145 J/kg-K | better low temperature viscosity | 0.14 ppmw | 0.13 ppmw | comparable to that of comparative 1 and better than comparative 2 | 15.5 MV/m | 20 years | –
4 | HFP Trimer-Oxirane [Example 3] | 12.5 ×10^−7 m^2/s | 1.6 kPa | 121.9 °C | −103 °C | 869 J/kg-K | acceptable viscosity for heat transfer applications as low as −40 °C | – | – | – | 17.3 MV/m | – | –
5 | FC(F)(F)C(F)(F)C(F)(F)C(F)(F)C(F)(F)C(F)(F)F [Comparative 1, Perfluorohexane] | 3.8 ×10^−7 m^2/s | 30.0 kPa | 56 °C | −90 °C | 1100 J/kg-K | – | 0.09 ppmw | 0.23 ppmw | – | – | – | 3200 years
6 | FC(F)(F)OC(F)(F)OC(F)(F)C(F)(OC(F)(F)F)C(F)(F)F (stereo not drawn) [CF3OCF(CF3)CF2OCF2OCF3] | – | – | – | – | – | – | – | – | – | – | – | 800 years
7 | FC(F)(F)C(F)(F)C1(F)OC1(C(F)(F)F)C(F)(F)F (stereo not drawn) [2-fluoro-2-pentafluoroethyl-3,3-bis-trifluoromethyl-oxirane] | – | – | – | – | – | – | – | – | – | – | 77 years | –
8 | FC1(F)C(F)(F)C(F)(F)C2(F)OC2(F)C1(F)F (stereo not drawn) [Example 2, 1,2,2,3,3,4,4,5,5,6-decafluoro-7-oxa-bicyclo [4.1.0]heptane] | 6.6 ×10^−7 m^2/s | 30.3 kPa | 56.1 °C | −88 °C | 1083 J/kg-K | better low temperature viscosity | – | – | – | – | – | –
9 | O=C(C(F)(F)C(F)(F)F)C(F)(C(F)(F)F)C(F)(F)F [Comparative 2, Dodecafluoro-2-methylpentan-3-one] | 4.0 ×10^−7 m^2/s | 40.4 kPa | 49 °C | −108 °C | 1103 J/kg-K | – | 1.13 ppmw | 5.89 ppmw | – | – | – | –
